Source: ChEMBL document CHEMBL1201862, “PubChem BioAssay data set” (2004)
Activity calls are given as the source filed them. Rule as the data show it, for most assays here: actives have a measured EC50 and inactives only a lower limit.

Experiments:
[1] = target: Melanocortin receptor 4 (Homo sapiens, UniProt P32245); assay type: functional, cell-based;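 also: Cell-based assay with luminescence read-out, confirmatory dose-response testing for agonist activity of biased ligands at MC4R; human U2OS cells with tagged receptor and beta-arrestin; potency of agonists that increase receptor coupling to beta-arrestin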
[2] = miR-122 activators in hepatoma reporter cells, dose response, cell-based, Huh7 psiCHECK-miR122, Renilla luciferase, cherry-picked (AID 651956); assay type: functional;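 also: huh7 hepatoma cells stably carrying a psiCHECK-2 miR-122 sensor plasmid; renilla luciferase signal reporting endogenous miR-122 activity after 48 h compound exposure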
[3] = HEK293T cytotoxicity, dose response, cytotoxicity control for miR-122 modulator project, cell-based, activator set, cherry-pick (AID 720690); assay type: functional;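 also: HEK293T human cells scored for general mammalian cytotoxicity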
[4] = HEK293T cytotoxicity, dose response, cytotoxicity control for miR-122 modulator project, cell-based, inhibitor set, cherry-pick, set 2 (AID 720697); assay type: functional
[5] = AlphaScreen signal interference compounds, dose response, artefact control for ARNT-TACC3 interaction inhibitor project, biochemical, luminescence, cherry-pick (AID 651705); assay type: functional;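 also: AlphaScreen bead proximity signal that flags compounds interfering with the detection technology; potency reflects signal decrease which marks the compound as an assay artifact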
[6] = target: ATP-dependent molecular chaperone HSP82 (Candida albicans (strain WO-1) (Yeast), UniProt C4YTQ8); experiment: loss of DOC-induced GRE-beta-galactosidase reporter signal, dose response, Hsp90 inhibitor project, S. cerevisiae, luminescence (AID 2400); assay type: functional, cell-based;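 also: beta-galactosidase luminescence from glucocorticoid response element reporter as proxy for Hsp90 function; inhibitor potency where signal loss means Hsp90 inhibition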
[7] = target: Heat shock protein HSP 90-alpha (Homo sapiens, UniProt P07900); assay type: functional, organism-based
[8] = target: T1, Serine/threonine-protein phosphatase (Candida dubliniensis (strain CD36 / CBS 7987 / NCPF 3949 / NRRLY-17841) (Yeast), UniProt B9W6M3); experiment: calcineurin pathway inhibitors in yeast reporter, dose response, S. cerevisiae, CDRE-lacZ, luminescence, secondary (AID 2388); assay type: functional, cell-based;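 also: yeast reporter cells carrying a calcineurin-responsive lacZ construct stimulated with calcium chloride; luminescent beta-galactosidase reporter signal in whole cells rather than isolated phosphatase activity; potency for inhibition where a drop in reporter signal means calcineurin blockade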
T1 sequence (B9W6M3 whole entry): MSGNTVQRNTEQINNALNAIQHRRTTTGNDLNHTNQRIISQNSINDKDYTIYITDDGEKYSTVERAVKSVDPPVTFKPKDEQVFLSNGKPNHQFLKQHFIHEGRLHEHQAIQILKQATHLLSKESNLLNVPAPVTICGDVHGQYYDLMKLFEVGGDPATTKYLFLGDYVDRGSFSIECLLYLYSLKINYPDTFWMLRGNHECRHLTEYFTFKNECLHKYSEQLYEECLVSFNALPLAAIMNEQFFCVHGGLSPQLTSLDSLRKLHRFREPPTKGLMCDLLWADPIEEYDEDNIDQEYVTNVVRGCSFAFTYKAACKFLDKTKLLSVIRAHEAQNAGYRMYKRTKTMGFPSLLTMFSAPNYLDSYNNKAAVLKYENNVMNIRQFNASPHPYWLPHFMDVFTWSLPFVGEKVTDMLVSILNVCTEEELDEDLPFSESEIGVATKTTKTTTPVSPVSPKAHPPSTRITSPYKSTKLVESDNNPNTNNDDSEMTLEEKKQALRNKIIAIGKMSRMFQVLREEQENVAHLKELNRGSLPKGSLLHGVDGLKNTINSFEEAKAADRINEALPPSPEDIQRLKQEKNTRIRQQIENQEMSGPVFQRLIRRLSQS

[9] = target: T2, Apoptotic protease-activating factor 1 (Homo sapiens, UniProt O14727); experiment: SAR analysis of small molecule Activators of Apaf-1 in a Fluorescent assay.; assay type: functional; conditions: read-out: EC50_Mean;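 also: caspase-3 cleavage of fluorogenic Rh110 DEVD substrate downstream of apoptosome activation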
T2 sequence (O14727 whole entry): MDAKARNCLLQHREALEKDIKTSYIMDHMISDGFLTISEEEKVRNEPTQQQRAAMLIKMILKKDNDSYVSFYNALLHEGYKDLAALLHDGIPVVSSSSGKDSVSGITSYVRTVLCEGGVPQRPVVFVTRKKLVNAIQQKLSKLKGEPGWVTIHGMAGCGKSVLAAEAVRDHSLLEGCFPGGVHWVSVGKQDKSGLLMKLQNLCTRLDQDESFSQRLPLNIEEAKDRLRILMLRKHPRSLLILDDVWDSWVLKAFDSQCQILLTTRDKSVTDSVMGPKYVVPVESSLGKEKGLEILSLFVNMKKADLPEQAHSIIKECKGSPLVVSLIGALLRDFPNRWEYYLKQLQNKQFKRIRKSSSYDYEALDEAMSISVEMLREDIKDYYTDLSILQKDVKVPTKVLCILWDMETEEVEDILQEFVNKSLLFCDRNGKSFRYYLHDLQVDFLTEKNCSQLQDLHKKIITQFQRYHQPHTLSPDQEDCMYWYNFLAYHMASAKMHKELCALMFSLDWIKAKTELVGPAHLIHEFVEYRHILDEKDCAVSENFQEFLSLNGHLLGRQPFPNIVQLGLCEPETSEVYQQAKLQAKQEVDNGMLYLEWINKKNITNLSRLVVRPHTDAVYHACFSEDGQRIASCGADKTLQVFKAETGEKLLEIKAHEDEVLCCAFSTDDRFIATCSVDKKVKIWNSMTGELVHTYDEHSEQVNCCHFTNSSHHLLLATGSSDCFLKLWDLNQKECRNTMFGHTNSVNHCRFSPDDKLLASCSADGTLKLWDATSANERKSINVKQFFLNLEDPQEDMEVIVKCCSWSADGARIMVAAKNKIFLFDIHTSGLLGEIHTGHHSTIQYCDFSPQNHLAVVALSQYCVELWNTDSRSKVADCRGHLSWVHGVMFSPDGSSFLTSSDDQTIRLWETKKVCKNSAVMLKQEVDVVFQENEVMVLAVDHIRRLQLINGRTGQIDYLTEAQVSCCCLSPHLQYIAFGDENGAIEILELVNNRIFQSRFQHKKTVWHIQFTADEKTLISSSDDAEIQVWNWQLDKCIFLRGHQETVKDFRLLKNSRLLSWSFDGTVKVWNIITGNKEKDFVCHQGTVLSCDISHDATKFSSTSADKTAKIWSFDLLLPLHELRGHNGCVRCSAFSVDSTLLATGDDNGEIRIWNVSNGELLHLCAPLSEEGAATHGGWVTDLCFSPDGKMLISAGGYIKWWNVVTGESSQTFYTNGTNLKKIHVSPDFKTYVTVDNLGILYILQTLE

[10] = target: Beta-galactosidase (Escherichia coli, UniProt Q8VNN2); experiment: Dose response counterscreen for EBI2 assay utilizing the enzyme, b-galactosidase.; assay type: functional
[11] = target: T3, Streptokinase A (Streptococcus pyogenes serotype M1, UniProt P10520); experiment: S. pyogenes streptokinase expression inhibitors, potency, dose response, plasminogen activation absorbance, OD405 (AID 1914); assay type: functional, Streptococcus pyogenes M1 GAS;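 also: secreted streptokinase activity via plasminogen activation per viability signal from cell pellet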
T3 sequence (P10520 whole entry): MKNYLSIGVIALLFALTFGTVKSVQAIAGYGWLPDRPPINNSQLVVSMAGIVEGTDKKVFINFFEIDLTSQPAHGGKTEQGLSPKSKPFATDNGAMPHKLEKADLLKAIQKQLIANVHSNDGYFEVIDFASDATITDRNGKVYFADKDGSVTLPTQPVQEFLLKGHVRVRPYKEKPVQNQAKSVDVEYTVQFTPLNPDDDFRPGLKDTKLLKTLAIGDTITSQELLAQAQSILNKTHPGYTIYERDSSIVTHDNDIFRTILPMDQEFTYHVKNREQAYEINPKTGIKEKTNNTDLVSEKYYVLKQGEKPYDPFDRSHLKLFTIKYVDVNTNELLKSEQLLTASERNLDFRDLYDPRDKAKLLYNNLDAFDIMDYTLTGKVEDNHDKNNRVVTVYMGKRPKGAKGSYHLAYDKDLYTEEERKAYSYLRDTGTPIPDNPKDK

[12] = test system: Streptococcus sp. 'group A'; experiment: growth inhibition of control SK(-) GAS strain, dose response, counter-screen for streptokinase expression inhibitor project, luminescence, kanamycin, BacTiterGlo, confirmation (AID 1900); assay type: functional, organism-based
[13] = test system: Streptococcus; experiment: Group A Streptococcus viability loss, dose response, counter-screen for streptokinase expression inhibitor project, luminescence, BacTiterGlo (AID 1915); assay type: functional, organism-based;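 also: potency for reduction of bacterial viability or growth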
[14] = test system: BJ; experiment: cytotoxicity toward Ras-transformed BJeLR fibroblasts, dose response, cell-based, alamar blue fluorescence, cherrypicked samples (AID 2631); assay type: functional; conditions: Homo sapiens;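 also: confirmatory dose-response assay in RAS-dependent BJ fibroblasts engineered with TERT, LT and ST, with cytotoxicity read by fluorescence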
[15] = test system: BJ; experiment: cytotoxicity toward BJ-TERT-LT-ST fibroblasts, dose response, cell-based, RAS-independent, luminescence (AID 1935); assay type: functional; conditions: Homo sapiens;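 also: BJ fibroblasts immortalized with TERT plus LT and ST oncogenes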
[16] = test system: BJ; experiment: cytotoxicity toward BJ-TERT fibroblasts, dose response, cell-based, RAS-independent, luminescence (AID 1933); assay type: functional; conditions: Homo sapiens
[17] = test system: BJ; experiment: cells; assay type: functional, cell-based; conditions: Homo sapiens
[18] = target: T4, Rac GTPase-activating protein 1 (Homo sapiens, UniProt Q9H0H5); experiment: MgcRacGAP GTPase-activating activity inhibitors, confirmation, biochemical, ADP Hunter fluorescence, primary and confirmatory (AID 624330); assay type: functional
T4 sequence (Q9H0H5 whole entry): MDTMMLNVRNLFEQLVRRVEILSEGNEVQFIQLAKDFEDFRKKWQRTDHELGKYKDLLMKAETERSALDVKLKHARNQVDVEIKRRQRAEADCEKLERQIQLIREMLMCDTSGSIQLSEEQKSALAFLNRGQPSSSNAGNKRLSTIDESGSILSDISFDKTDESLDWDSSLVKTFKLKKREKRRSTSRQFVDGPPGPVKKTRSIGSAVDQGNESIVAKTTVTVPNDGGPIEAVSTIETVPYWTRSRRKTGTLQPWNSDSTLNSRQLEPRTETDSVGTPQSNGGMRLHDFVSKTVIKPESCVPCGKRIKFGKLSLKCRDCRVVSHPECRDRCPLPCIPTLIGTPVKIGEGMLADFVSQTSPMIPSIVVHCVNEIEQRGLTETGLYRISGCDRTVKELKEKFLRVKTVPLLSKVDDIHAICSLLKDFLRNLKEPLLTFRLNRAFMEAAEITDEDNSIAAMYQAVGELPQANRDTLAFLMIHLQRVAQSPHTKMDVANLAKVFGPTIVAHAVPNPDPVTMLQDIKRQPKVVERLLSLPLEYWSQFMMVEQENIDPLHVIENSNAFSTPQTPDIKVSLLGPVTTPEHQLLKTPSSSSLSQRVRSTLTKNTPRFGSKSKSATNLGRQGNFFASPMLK

[19] = cytotoxicity toward DRD oncogenic fibroblasts, dose response, cell-based, non-viral oncogenic, luminescence (AID 1934); assay type: functional; conditions: Homo sapiens
[20] = cytotoxicity toward NIH3T3 fibroblasts, dose response, counter-screen, cell-based, ATP luminescence, mouse fibroblasts (AID 2010); assay type: functional;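 also: cells exposed to compound for about 90 hours before reading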
[21] = C. albicans growth with fluconazole, confirmation, fluorescence, retest (AID 2467); assay type: functional, cell-based
[22] = inhibitors of intracellular T. cruzi replication, confirmation, NIH3T3 host cells, beta-gal luminescence (AID 2044); assay type: functional, cell-based;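 also: intracellular parasites grown in NIH/3T3 mouse fibroblasts as host cells; luminescent beta-galactosidase reporter signal from transgenic T. cruzi replicating inside host cells; inhibitors lower the luminescence signal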
[23] = NIH-3T3 fibroblast cytotoxicity, dose response, cytotoxicity control, cell-based, fluorescence, Alamar Blue, secondary assay (AID 2327); assay type: functional;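 also: NIH-3T3 mouse fibroblasts cultured with fluconazole at 8 µg/mL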

Sequence of Melanocortin receptor 4 (P32245 whole entry): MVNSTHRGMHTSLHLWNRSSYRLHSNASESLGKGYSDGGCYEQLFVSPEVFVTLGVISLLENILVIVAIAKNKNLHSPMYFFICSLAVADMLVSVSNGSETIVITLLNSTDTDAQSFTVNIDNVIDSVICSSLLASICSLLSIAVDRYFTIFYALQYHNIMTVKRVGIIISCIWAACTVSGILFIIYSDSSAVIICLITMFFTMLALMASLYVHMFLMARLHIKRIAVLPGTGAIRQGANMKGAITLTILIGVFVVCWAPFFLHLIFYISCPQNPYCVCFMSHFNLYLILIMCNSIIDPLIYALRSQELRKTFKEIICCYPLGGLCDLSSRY
Sequence of Beta-galactosidase (Q8VNN2 whole entry): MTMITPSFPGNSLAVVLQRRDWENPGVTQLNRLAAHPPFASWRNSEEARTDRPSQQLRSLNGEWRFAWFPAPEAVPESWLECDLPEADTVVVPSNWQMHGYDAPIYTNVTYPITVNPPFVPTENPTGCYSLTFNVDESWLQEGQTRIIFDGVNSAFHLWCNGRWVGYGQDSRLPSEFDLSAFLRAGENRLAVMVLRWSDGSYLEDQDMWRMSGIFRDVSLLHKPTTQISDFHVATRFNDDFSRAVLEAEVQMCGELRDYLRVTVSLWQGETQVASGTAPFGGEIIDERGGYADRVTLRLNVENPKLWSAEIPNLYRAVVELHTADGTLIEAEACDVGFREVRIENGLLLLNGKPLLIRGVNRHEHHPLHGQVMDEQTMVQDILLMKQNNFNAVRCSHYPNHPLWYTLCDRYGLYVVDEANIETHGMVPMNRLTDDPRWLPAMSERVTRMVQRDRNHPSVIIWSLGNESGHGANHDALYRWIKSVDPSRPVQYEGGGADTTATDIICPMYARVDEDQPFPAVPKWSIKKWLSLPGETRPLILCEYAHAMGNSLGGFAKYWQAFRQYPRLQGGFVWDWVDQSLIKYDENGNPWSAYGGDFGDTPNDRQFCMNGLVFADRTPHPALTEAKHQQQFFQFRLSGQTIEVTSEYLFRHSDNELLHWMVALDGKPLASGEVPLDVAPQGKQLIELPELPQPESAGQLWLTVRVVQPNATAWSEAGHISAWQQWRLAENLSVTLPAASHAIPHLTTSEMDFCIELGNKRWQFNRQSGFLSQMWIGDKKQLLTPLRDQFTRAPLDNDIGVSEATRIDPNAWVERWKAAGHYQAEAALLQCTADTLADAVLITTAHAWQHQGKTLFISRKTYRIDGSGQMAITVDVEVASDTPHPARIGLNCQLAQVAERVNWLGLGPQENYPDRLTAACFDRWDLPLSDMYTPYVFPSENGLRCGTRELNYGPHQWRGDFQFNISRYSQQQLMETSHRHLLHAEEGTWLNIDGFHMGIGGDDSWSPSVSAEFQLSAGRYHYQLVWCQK
Sequence of ATP-dependent molecular chaperone HSP82 (C4YTQ8 whole entry): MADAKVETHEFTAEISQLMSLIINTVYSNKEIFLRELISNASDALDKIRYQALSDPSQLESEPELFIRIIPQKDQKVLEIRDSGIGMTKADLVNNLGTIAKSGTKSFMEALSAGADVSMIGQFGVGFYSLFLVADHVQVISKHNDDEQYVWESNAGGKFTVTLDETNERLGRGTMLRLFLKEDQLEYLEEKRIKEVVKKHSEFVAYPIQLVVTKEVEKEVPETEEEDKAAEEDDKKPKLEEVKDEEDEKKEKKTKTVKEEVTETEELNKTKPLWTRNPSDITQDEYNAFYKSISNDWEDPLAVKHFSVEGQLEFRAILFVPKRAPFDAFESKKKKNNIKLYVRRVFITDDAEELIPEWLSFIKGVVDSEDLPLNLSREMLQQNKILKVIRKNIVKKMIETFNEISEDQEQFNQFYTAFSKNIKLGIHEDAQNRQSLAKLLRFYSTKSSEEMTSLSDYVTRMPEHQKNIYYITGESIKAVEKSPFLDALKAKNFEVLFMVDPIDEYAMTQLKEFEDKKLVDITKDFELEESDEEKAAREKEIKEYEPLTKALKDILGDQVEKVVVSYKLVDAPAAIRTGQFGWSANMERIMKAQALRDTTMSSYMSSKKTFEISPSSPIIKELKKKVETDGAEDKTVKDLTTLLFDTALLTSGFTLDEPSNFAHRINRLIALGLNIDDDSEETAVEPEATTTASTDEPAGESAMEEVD

COc1ccc(-c2cc(NC(C)=O)c3ncc(-c4ccccc4)n3c2)c(OC)c1
EC50 [1]: > 89.2 µM (inactive)

CN(C)c1ccccc1-c1cc(NC=O)c2ncc(-c3cccc(C(F)(F)F)c3)n2c1
EC50 [1]: > 89.2 µM (inactive)

Cc1ccc(C(=O)N2CCN(c3ccc(NC(=O)COc4ccccc4C)cc3)CC2)cc1
AC50 [2]: 18.7 µM (active) | AC50 [3]: 30.9 µM (active) | AC50 [4]: 15.2 µM (active)

O=C(COC(=O)c1ccco1)Nc1nnc(-c2ccccc2)o1
AC50 [5]: 133 µM (active)

O=c1[nH]c(-c2ccccn2)nc(C(F)(F)F)c1Br
EC50 [6]: 10.7 µM (active) | AC50 [7]: 4.03 µM (active) | EC50 [8]: > 180 µM (inactive)

COc1ccc(S(=O)(=O)N2CCCCC2)cc1NC(=O)CCS(=O)(=O)c1ccc(C)cc1
EC50 [9]: > 100 µM (inactive)

CC(=O)Nc1ccc(C(C)C)cc1
EC50 [9]: > 100 µM (inactive)

Cc1nnc(NC(=O)c2ccc(S(=O)(=O)N3CCCCC3C)cc2)o1 (configuration not stated)
AC50 [5]: 92.5 µM (active)

CCOc1ccccc1NC(=O)CCS(=O)(=O)c1cc2c(cc1Br)CCN2C(=O)C1CC1
EC50 [9]: > 100 µM (inactive)

O=C(c1ccc(-n2cccc2)cc1)N1CCN(Cc2ccccc2)CC1
IC50 [10]: > 80 µM (inactive)

Cc1ccc(-c2cnc(N)n2C)cc1C
EC50 [11]: 89.4 µM (active) | AC50 [5]: 71.8 µM (active) | EC50 [12]: 3.86 µM (active) | EC50 [13]: > 150 µM (not active)

O=C(c1ccco1)N1CCN(C(=O)C2CC(c3ccc(F)cc3)=NO2)CC1 (configuration not stated)
EC50 [9]: > 100 µM (inactive)

CCOc1cc(/C=C2\CN(C)C/C(=C\c3ccc(O)c(OCC)c3)C2=O)ccc1O
EC50 [14]: 0.571 µM (active) | EC50 [15]: 2.64 µM (inconclusive) | EC50 [16]: 3.26 µM (inconclusive) | EC50 [17]: 4.94 µM (inconclusive) | IC50 [18]: 38.9 µM (active) | EC50 [19]: 2.93 µM (active)

O=C(/C=C/c1ccc(Br)cc1)N1CCN(c2cccc(C(F)(F)F)c2)CC1
IC50 [10]: > 80 µM (inactive)

C[C@@H]1CCCCO[C@H](CN(C)CC2CCCCC2)[C@H](C)CN([C@@H](C)CO)C(=O)c2cc(NC(=O)Nc3cccc4ccccc34)ccc2O1
AC50 [2]: 11.1 µM (active) | AC50 [3]: 10.6 µM (active) | AC50 [4]: 0.587 µM (active)

CCOc1ccc(N=Nc2ccc(O)c3ncccc23)cc1
EC50 [20]: 8.06 µM (active) | EC50 [6]: > 150 µM (inactive) | EC50 [8]: > 180 µM (inactive) | EC50 [21]: 1.11 µM (active) | EC50 [22]: 0.65 µM (active) | EC50 [12]: 0.19 µM (active) | EC50 [23]: > 150 µM (inconclusive) | EC50 [13]: 1.45 µM (active)

CC(=O)Nc1cc(-c2ccccc2)cn2c(-c3ccc(F)cc3)cnc12
EC50 [1]: > 89.2 µM (inactive)

N#Cc1ccc(OCC(=O)NCCCn2ccnc2)cc1
AC50 [5]: 95.7 µM (active)

Cc1ccc(NC(=O)N2CCC(O)(c3ccc(Cl)cc3)CC2)cc1
IC50 [10]: > 80 µM (inactive)

CCN(CC(=O)NCc1cccs1)C(=O)/C=C/c1ccc(C)cc1
IC50 [10]: > 80 µM (inactive)

O=CNc1cc(-c2ccsc2)cn2c(-c3ccccc3)cnc12
EC50 [1]: > 89.2 µM (inactive)
